According to US5298621A, “Oligopeptide derivatives of ipoxantine endowed with immunomodulating activity and pharmaceutical compositions containing same” (Sigma-Tau Industrie Farmaceutiche Riunite S.p.A., priority 1990, dated 1994):

Tests used:
Klebsiella oxytoca = assay: Protective effect in immunodepressed mice infected with Klebsiella oxytoca; type: in vivo; details: 25 mg/kg/day i.p. day -5 to -1, versus 44% mortality in the control group
Description: Test 2 Assessment of the protective effect induced by ST 657, ST 733, ST 754 and ST 789 on immunodepressed mice experimentally infected.
The immunosuppressor (cyclophosphamide) was administered i.p. in 0.2 mL of sterile saline, 100 mg/kg, 5 days before the infective challenge.
Compounds ST 733 and ST 754 (relevant data not shown in the tables) were administered i.p. (25 mg/kg/day) from day -5 (cyclophosphamide administration day) to day -1 (challenge at day 0) and tested utilizing Klebsiella oxytoca as infectious agent.

splenocytes = assay: "In vitro-ex vivo" mytogen (PHA)-induced splenocyte proliferation in mice
Description: Test 5 Assessment of the "in vitro-ex vivo" effect of ST 733 and ST 789 on the mytogen (PHA)-induced splenocyte proliferation in mice.
Male B6 D2 F1 mice (Charles River, Italy) aged 7-8 weeks (4 animals per group) were used.
PHA (phytohemagglutinine) active on T lymphocytes was used as mytogen. The mytogen was tested at three different concentrations (suboptimal, optimal, superoptimal): 0.5, 2 and 4 mcg/mL/well.
The compounds were administered i.p. 25 mg/kg/day from day -5 to day -1 (spleen excision at day 0).
The experimental procedure was conducted substantially as described by Kirchner et al, "Splenic suppressor macrophages induced in mice by injection of C. parvum", J. Immunol., 1975, 115:1212.
In particular, the cell suspensions obtained from the spleens of the animals of the same group were pooled and the cell concentration was adjusted to 5×10^6 cell/mL.
To volumes of 0.1 mL of each sample, equal volumes of the mytogen preparation were added so as to obtain the previously indicated final concentrations.
Each sample was prepared in triplicate in U-bottom microtiters. A control, to which 0.1 mL of medium was added instead of the mytogen, was also prepared. The control permits the extent of spontaneous proliferation in the absence of stimulation to be assessed.
The samples were incubated at 37° C. for 48 hours and then they were pulsed with 20 μL ^3 H-TdR (25 μCi/mL).
After 18 hours of further incubation, the cells were collected on filters and counted in a beta-counter to evaluate the incorporated radioactivity (in cpm).
The results for each sample are expressed by calculating the value of the area under the curve (AUC) obtained by plotting the values of the incorporated radioactivity (in cpm) versus the three concentrations of mytogen.
In addition to AUC, also the stimulation index (SI) is considered, that is defined as follows: [formula]

[1] = tested on: responders (thymus of C57B1/6) induced by stimulators (spleen of DBA/2); assay: "In vitro-ex vivo" mixed lymphocyte reaction (MLR); set-up: species or system mice; details: for Body weight / Spleen weight / Thymus weight / ^3 H-TdR Incorporation (cpm ± S.E.) Non stimulated responders / ^3 H-TdR Incorporation (cpm ± S.E.) Stimulated responders / Thymocytes No. (× 10^7): 25 mg/kg/day i.p. from day -5 to day -1; for stimulator splenocytes-induced proliferation of responder thymocytes (in words): comparison with ST 789; for Thymocytes No. (× 10^7): pooled samples
Description: Test 8 Assessment of the "in vitro-ex vivo" effect of ST 733, ST 754 and ST 789 on the mixed lymphocyte reaction (MLR).
Male DBA/2 mice (Charles River, Italy) aged 8 weeks were used as "stimulators" (4 animals per group); male inbred C57 B1/6 mice (Charles River, Italy) were used as "responders" (4 animals per group).
The compounds were administered i.p. from day -5 to day -1 (thymus excision of "responders" at day 0) 25 mg/kg/day.
The experimental procedure that was used is described by Hudson, L. and Hay, F. C., Practical Immunology, Blackwell Scientific Publication 290 (1980).

DTH reaction vs. SRBC = assay: Delayed type hypersensitivity test (DTH) vs. SRBC in mice; type: in vivo
Description: Test 6 Assessment of the effect of ST 785 and ST 789 on the delayed type hypersensitivity test (DTH).
Male B6 D2 F1 mice (Charles River, Italy) aged 6, 12 and 16 weeks (8 animals per group) were used.
The compounds were administered i.p., 25 mg/kg/day from day -3 to day +3 (immunization at day 0). Immunization was carried out by s.c. injection in the upper dorsal zone of the animals of 0.2 mL of SRBC (5×10^7 cells/mL).
Four days following the sensitizing injection, the animals were administered the challenge injection to bring about the delayed hypersensibility reaction. 50 μL of SRBC solution (2×10^9 cells/mL) were injected in the left hind foot-pad of the mice. The contralateral foot-pad received an equal volume of PBS. 24 hours after the challenge injection, the animals were sacrificed by cervical dislocation. The legs were amputated and the differences in weight between the left leg (treated with the challenge injection) and the contralateral leg were evaluated.
The mean of weight differences in the legs of the animals of the same experimental group was determined; the differences in the mean values calculated for each experimental group were processed using Student's "t" test (Biostatistics in Pharmacology, loc cit.).
The experimental procedure which was used is described by Miller, T. E. et al, (1973), Immunopotentiation with BCG. Modulation of the response to sheep red blood cells. J. Cancer Inst., 51:1669.

thymocytes = assay: "In vitro-ex vivo" mytogen (PHA, Con A)-induced murine thymocite proliferation; set-up: species or system mice; details: for Body weight / Thymus weight / Con A AUC (× 10^-3) / Con A I.S. (stimulation index) / PHA AUC (area under curve) / PHA I.S. (stimulation index) / Thymocytes No. (× 10^7): 25 mg/kg/day i.p. from day -4 to day -1; for Con A AUC (× 10^-3) / Con A I.S. (stimulation index): Con A-induced proliferation; for PHA AUC (area under curve) / PHA I.S. (stimulation index): PHA-induced proliferation; for extent of induced thymocyte proliferation (in words): comparison with ST 789; for Thymocytes No. (× 10^7): pooled samples
Description: Test 7 Assessment of the "in vitro-ex vivo" effect of ST 754, ST 785 and ST 789 on the mytogen (PHA, Con A)-induced murine thymocite proliferation.
The compounds were administered at the dose of 25 mg/kg/day from day -4 to day -1 (thymus excision at day 0). This test was conducted following the procedure described for test 5.
The Stimulation Index (S.I.) is as defined in test 5.

[2] = 25 mg/kg/day i.p. from day -5 to day -1

Molecule | mortality (Klebsiella oxytoca) | Body weight [1] [g] | Spleen weight [1] [mg] | Thymus weight [1] [mg] | ^3 H-TdR Incorporation (cpm ± S.E.) Non stimulated responders [1] [cpm] | ^3 H-TdR Incorporation (cpm ± S.E.) Stimulated responders [1] [cpm] | stimulator splenocytes-induced proliferation of responder thymocytes (in words) [1] | Thymocytes No. (× 10^7) [1] | Body weight (thymocytes) [g] | Thymus weight (thymocytes) [mg] | Con A AUC (× 10^-3) (thymocytes) | Con A I.S. (stimulation index) (thymocytes) | PHA AUC (area under curve) (thymocytes) | PHA I.S. (stimulation index) (thymocytes) | extent of induced thymocyte proliferation (in words) (thymocytes) | Thymocytes No. (× 10^7) (thymocytes) | further results
C[C@H](NC(=O)OCCCCCn1cnc2c(=O)[nH]cnc21)C(=O)NCC(=O)[O-].[Na+] [ST 733, N-5-(ipoxantin-9-yl) pentyloxycarbonyl L-alanyl-glycine sodium salt] | no mortality at all | 21.8 ± 0.8 | 88.7 ± 13.6 | 61.5 ± 2.7 | 163.0 | 11187 | more potent than ST 789 | 15.5 × 10^7 |  |  |  |  |  |  |  |  | Body weight (splenocytes; [2]): 23.4 ± 0.2 g; Spleen weight (splenocytes; [2]): 74.0 ± 4.0 mg; Thymus weight (splenocytes; [2]): 75.0 ± 4.0 mg; PHA AUC (area under curve, cpm versus three mytogen concentrations) (splenocytes; PHA 0.5, 2 and 4 mcg/mL/well, 25 mg/kg/day i.p. from day -5 to day -1): 160 × 10^-3; PHA I.S. (stimulation index) (splenocytes; PHA-induced proliferation, 25 mg/kg/day i.p. from day -5 to day -1): 1.82; mytogen-induced proliferation versus the controls (in words) (splenocytes; PHA, 25 mg/kg/day i.p.): remarkable increase; Splenocytes No. (× 10^7) (splenocytes; pooled samples, 25 mg/kg/day i.p. from day -5 to day -1): 14.7 × 10^7
C[C@H](NC(=O)OCCCCCn1cnc2c(=O)[nH]cnc21)C(=O)N[C@@H](CCCNC(=N)N)C(=O)O [ST 785, N-5-(ipoxantin-9-yl) pentyloxycarbonyl L-alanyl-arginine] |  |  |  |  |  |  |  |  | 22.5 ± 0.4 | 73.0 ± 2.7 | 79 × 10^-3 | 1.26 | 4421 | 1.58 | more potent than ST 789 | 15.1 × 10^7 | Mean difference in weight (mg ± S.E.) between treated and untreated foot-pads (DTH reaction vs. SRBC; 25 mg/kg/day i.p. from day -3 to day +3 respect to the immunization): 22.4 ± 3.79 mg; response to the DTH test (in words) (DTH reaction vs. SRBC; 25 mg/kg/day i.p., p≤0.01): remarkably reduce
N-5-(ipoxantin-9-yl) pentyloxycarbonyl L-(alpha) aspartyl L-arginine sodium salt [ST 754] | no mortality at all | 22.3 ± 0.5 | 81.2 ± 3.3 | 57.5 ± 8.4 | 89.2 | 11011 | more potent than ST 789 | 12.9 × 10^7 | 22.9 ± 0.5 | 74.0 ± 3.4 | 78 × 10^-3 | 1.25 | 3132 | 1.12 | more potent than ST 789 | 15.4 × 10^7 | 
